Patent US7528138B2, “Pyrazolo[1,5-a]pyrimidines useful as inhibitors of protein kinases” (Vertex Pharmaceuticals Incorporated, priority 2004, dated 2009)

Key:
Aurora-2 = target: T1, Aurora-2 (Homo sapiens, UniProt O14965); assay: Aurora-A (Aurora-2) Inhibition Assay, coupled enzyme assay; type: biochemical; settings: enzyme inhibition data (Ki), Table 11; read-out: AurA Ki
T1 sequence (O14965 1-403): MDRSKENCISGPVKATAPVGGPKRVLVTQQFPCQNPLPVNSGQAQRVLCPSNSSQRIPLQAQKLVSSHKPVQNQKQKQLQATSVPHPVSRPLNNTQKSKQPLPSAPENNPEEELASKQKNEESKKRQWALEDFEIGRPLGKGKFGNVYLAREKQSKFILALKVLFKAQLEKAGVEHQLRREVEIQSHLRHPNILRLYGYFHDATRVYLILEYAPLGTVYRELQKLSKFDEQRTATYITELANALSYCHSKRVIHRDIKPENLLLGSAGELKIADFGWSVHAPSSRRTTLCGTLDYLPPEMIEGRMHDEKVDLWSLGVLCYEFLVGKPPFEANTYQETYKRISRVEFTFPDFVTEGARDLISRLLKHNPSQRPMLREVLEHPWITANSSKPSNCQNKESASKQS
Experimental: Compounds are screened for their ability to inhibit Aurora-2 using a standard coupled enzyme assay (Fox et al., Protein Sci., (1998) 7, 2249). Assays are carried out in a mixture of 100 mM Hepes (pH7.5), 10 mM MgCl2, 1 mM DTT, 25 mM NaCl, 2.5 mM phosphoenolpyruvate, 300 μM NADH, 30 μg/ml pyruvate kinase and 10 μg/ml lactate dehydrogenase. Final substrate concentrations in the assay are 400 μM ATP (Sigma Chemicals) and 570 μM peptide (Kemptide, American Peptide, Sunnyvale, Calif.). Assays are carried out at 30° C. and in the presence of 40 nM Aurora-2.
An assay stock buffer solution is prepared containing all of the reagents listed above, with the exception of Aurora-2 and the test compound of interest. 55 μl of the stock solution is placed in a 96 well plate followed by addition of 2 μl of DMSO stock containing serial dilutions of the test compound (typically starting from a final concentration of 7.5 μM). The plate is preincubated for 10 minutes at 30° C. and the reaction initiated by addition of 10 μl of Aurora-2. Initial reaction rates are determined with a Molecular Devices SpectraMax Plus plate reader over a 10 minute time course. IC50 and Ki data are calculated from non-linear regression analysis using the Prism software package (GraphPad Prism version 3.0cx for Macintosh, GraphPad Software, San Diego Calif., USA).

c-Met = c-Met (Homo sapiens, UniProt P08581); assay: c-Met Inhibition Assay, coupled enzyme system; type: biochemical; settings: enzyme inhibition data (Ki), Table 11
Sequence of c-Met (P08581 25-1390): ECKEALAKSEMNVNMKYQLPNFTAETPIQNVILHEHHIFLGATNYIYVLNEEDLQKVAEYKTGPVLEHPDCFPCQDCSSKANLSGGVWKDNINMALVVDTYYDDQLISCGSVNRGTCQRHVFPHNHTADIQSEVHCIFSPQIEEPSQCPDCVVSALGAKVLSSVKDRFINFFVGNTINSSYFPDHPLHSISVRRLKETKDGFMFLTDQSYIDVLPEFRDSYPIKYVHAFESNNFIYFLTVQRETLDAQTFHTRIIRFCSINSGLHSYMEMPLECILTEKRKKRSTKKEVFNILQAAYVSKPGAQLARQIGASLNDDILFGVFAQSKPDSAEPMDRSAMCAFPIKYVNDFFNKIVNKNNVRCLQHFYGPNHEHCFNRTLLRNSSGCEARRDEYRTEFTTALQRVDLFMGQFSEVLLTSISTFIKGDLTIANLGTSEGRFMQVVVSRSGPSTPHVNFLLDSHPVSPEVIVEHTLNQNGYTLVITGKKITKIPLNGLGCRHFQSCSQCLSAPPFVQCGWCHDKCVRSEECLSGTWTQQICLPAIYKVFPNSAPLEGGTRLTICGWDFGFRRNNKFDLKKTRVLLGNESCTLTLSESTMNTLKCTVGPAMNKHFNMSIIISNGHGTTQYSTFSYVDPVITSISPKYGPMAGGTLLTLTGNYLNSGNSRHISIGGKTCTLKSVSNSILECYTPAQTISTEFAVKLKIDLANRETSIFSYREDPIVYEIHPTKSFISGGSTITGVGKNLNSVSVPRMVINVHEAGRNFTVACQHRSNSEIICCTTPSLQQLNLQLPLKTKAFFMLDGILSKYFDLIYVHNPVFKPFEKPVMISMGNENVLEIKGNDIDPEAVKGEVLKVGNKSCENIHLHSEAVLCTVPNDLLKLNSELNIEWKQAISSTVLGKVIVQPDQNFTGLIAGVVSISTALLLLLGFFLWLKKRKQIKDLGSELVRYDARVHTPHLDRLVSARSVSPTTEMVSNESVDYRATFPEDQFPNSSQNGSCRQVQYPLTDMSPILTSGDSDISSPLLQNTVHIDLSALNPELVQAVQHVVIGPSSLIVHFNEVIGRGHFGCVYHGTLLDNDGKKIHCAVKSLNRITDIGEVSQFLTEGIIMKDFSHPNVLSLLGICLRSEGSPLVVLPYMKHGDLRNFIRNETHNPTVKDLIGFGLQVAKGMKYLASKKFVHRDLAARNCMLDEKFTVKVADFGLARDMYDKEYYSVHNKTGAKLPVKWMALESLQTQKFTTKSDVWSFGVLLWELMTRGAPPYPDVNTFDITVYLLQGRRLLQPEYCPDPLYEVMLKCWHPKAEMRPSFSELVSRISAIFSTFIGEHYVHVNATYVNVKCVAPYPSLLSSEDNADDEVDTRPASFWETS
Method in brief: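 Pyruvate kinase/lactate dehydrogenase-coupled NADH assay in HEPES pH 7.5 with 80 nM c-Met, 200 μM ATP and 10 μM polyGluTyr at 30° C. Compound (0.006–12.5 μM final, 12-point) preincubated 10 min before ATP start; rates over 10 min gave Ki.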

Structure (SMILES) | Ki (Aurora-2) | Ki (c-Met)
COCCNc1ccc(-c2cnc3c(-c4ccccn4)c(N)nn3c2)cn1 [Compound V-156] | 500 to 5000 nM | < 500 nM
COC(=O)C1CCCN1C(=O)c1cccc(-c2cnc3c(-c4ccccn4)c(N)nn3c2)n1 (centres unmarked) [Compound V-139] | 500 to 5000 nM | < 500 nM
Nc1nn2cc(-c3ccc(C(=O)NC4CCCO4)cn3)cnc2c1-c1ccccn1 (centres unmarked) [Compound V-96] | 500 to 5000 nM | < 500 nM
CC(C)CN(C)c1cc(-c2c(N)nn3cc(-c4ccncc4)cnc23)ncn1 [Compound V-243] | < 500 nM | < 500 nM
CNCCN(C)C(=O)c1cccc(-c2cnc3c(-c4ccccn4)c(N)nn3c2)c1 [Compound V-189] | 500 to 5000 nM | < 500 nM
CNCCCN(C)C(=O)c1cccc(-c2cnc3c(-c4ccccn4)c(N)nn3c2)c1 [Compound V-190] | 500 to 5000 nM | < 500 nM
CCN(CC)C(=O)c1cccc(-c2cnc3c(-c4ccccn4)c(N)nn3c2)n1 [Compound V-127] | 500 to 5000 nM | < 500 nM
Nc1nn2cc(-c3cccc(CN4CCOCC4)c3)cnc2c1-c1ccccn1 [Compound V-225] | 500 to 5000 nM | < 500 nM
Nc1nn2cc(-c3cccc(CO)c3)cnc2c1-c1ccccn1 [Compound V-221] | 500 to 5000 nM | < 500 nM
CN(CCC#N)C(=O)c1cccc(-c2cnc3c(-c4ccccn4)c(N)nn3c2)n1 [Compound V-114] | 500 to 5000 nM | < 500 nM
C#CCN(C)C(=O)c1cccc(-c2cnc3c(-c4ccccn4)c(N)nn3c2)n1 [Compound V-106] | 500 to 5000 nM | < 500 nM
Cc1ccc(-c2c(N)nn3cc(-c4ccncc4)cnc23)nc1 [Compound V-132] | 500 to 5000 nM | < 500 nM
NC1NN2C=C(c3cccc(CN4CC[C@@H](N)C4)c3)C=NC2=C1c1ccccn1 (some centres unmarked) [Compound V-226] | 500 to 5000 nM | < 500 nM
Nc1nn2cc(-c3ccncc3)cnc2c1-c1cc(NC2CCCCC2)ncn1 [Compound V-183] | < 500 nM | < 500 nM
CC(C)CN(C)C(=O)c1ccc(-c2cnc3c(-c4ccccn4)c(N)nn3c2)nc1 [Compound V-97] | < 500 nM | < 500 nM
Nc1nn2cc(-c3ccncc3)cnc2c1-c1cc(Nc2ccccc2)ncn1 [Compound V-241] | < 500 nM | < 500 nM
Cc1cccnc1-c1c(N)nn2cc(-c3ccncc3)cnc12 [Compound V-135] | 500 to 5000 nM | 500 to 5000 nM
Cc1ccnc(-c2c(N)nn3cc(-c4ccncc4)cnc23)c1 [Compound V-133] | < 500 nM | < 500 nM
Nc1nn2cc(-c3cccc(C(=O)N4CCCC4CO)n3)cnc2c1-c1ccccn1 (centres unmarked) [Compound V-112] | 500 to 5000 nM | < 500 nM
CS(=O)(=O)Nc1cccc(-c2cnc3c(-c4ccccn4)c(N)nn3c2)c1 [Compound V-18] | < 500 nM | < 500 nM

Structure (SMILES) | Ki (Aurora-2) | Ki (c-Met)
Cc1cccc(-c2c(N)nn3cc(-c4ccncc4)cnc23)n1 [Compound V-178] | < 500 nM | 500 to 5000 nM
COc1ccc(-c2cn3nc(N)c(-c4ccccn4)c3nc2C)cc1 [Compound V-216] | 500 to 5000 nM | 500 to 5000 nM
CCN1CCN(C(=O)c2cccc(-c3cnc4c(-c5ccccn5)c(N)nn4c3)n2)CC1 [Compound V-102] | 500 to 5000 nM | < 500 nM
CCN(CCC#N)C(=O)c1cccc(-c2cnc3c(-c4ccccn4)c(N)nn3c2)n1 [Compound V-116] | 500 to 5000 nM | < 500 nM
Nc1nn2cc(-c3cccc(C(=O)N4CCC[C@@H]4CN4CCCC4)n3)cnc2c1-c1ccccn1 [Compound V-175] | 500 to 5000 nM | < 500 nM
Nc1nn2cc(-c3ccc(N4CCC[C@H]4CN4CCCC4)nc3)cnc2c1-c1ccccn1 [Compound V-152] | 500 to 5000 nM | < 500 nM
CN(CCCN)C(=O)c1ccc(-c2cnc3c(-c4ccccn4)c(N)nn3c2)nc1 [Compound V-130] | 500 to 5000 nM | < 500 nM
CCCN(CC)c1cc(-c2c(N)nn3cc(-c4ccncc4)cnc23)ncn1 [Compound V-244] | < 500 nM | < 500 nM
CNC(=O)c1cnc2c(-c3ccccn3)c(N)nn2c1 [Compound V-204] | 500 to 5000 nM | 500 to 5000 nM
CC(C)CNc1cc(-c2c(N)nn3cc(-c4ccncc4)cnc23)ncn1 [Compound V-185] | < 500 nM | < 500 nM
CC(C)N1CCN(c2ccc(-c3cnc4c(-c5ccccn5)c(N)nn4c3)cn2)CC1 [Compound V-146] | 500 to 5000 nM | < 500 nM
CC(C)(O)C#Cc1cnc2c(-c3ccccn3)c(N)nn2c1 [Compound V-237] | 500 to 5000 nM | < 500 nM
CCN(C)C(=O)c1cccc(-c2cnc3c(-c4ccccn4)c(N)nn3c2)n1 [Compound V-115] | 500 to 5000 nM | < 500 nM
CC(C)Nc1cc(-c2c(N)nn3cc(-c4ccncc4)cnc23)ncn1 [Compound V-182] | < 500 nM | < 500 nM
Nc1nn2cc(-c3ccc(N4CCC(N)CC4)nc3)cnc2c1-c1ccccn1 [Compound V-165] | < 500 nM | < 500 nM
CCN(CC)C(=O)c1ccc(-c2cnc3c(-c4ccccn4)c(N)nn3c2)nc1 [Compound V-98] | < 500 nM | < 500 nM
CN1CCCN(c2ccc(-c3cnc4c(-c5ccccn5)c(N)nn4c3)cn2)CC1 [Compound V-160] | 500 to 5000 nM | < 500 nM
Nc1nn2cc(-c3ccc(N4CCNCC4)nc3)cnc2c1-c1ccccn1 [Compound V-151] | 500 to 5000 nM | < 500 nM
Nc1nn2cc(C#CCO)cnc2c1-c1ccccn1 [Compound V-238] | 500 to 5000 nM | < 500 nM
CNc1cc(-c2c(N)nn3cc(-c4ccncc4)cnc23)ncn1 [Compound V-181] | < 500 nM | < 500 nM

Structure (SMILES) | Ki (Aurora-2) | Ki (c-Met)
Nc1nn2cc(-c3ccncc3)cnc2c1-c1ncccc1OCc1ccccc1 [Compound V-134] | 500 to 5000 nM | 500 to 5000 nM
COc1ccccc1-c1cnc2c(-c3ccccn3)c(N)nn2c1 [Compound V-14] | 500 to 5000 nM | 500 to 5000 nM
Nc1nn2cc(-c3ccncc3)cnc2c1-c1cc(NCC2CCCCC2)ncn1 [Compound V-184] | < 500 nM | < 500 nM
CN(CCCN)C(=O)c1cccc(-c2cnc3c(-c4ccccn4)c(N)nn3c2)n1 [Compound V-155] | 500 to 5000 nM | < 500 nM
Nc1nn2cc(-c3cccc(C(=O)N4CCC(N)CC4)n3)cnc2c1-c1ccccn1 [Compound V-104] | 500 to 5000 nM | < 500 nM
CN1CCC(N(C)C(=O)c2cccc(-c3cnc4c(-c5ccccn5)c(N)nn4c3)n2)CC1 [Compound V-101] | 500 to 5000 nM | < 500 nM
COCCCN1CCN(C(=O)c2ccc(-c3cnc4c(-c5ccccn5)c(N)nn4c3)nc2)CC1 [Compound V-129] | < 500 nM | < 500 nM
Nc1nn2cc(-c3ccc(N4CCC[C@@H]4CN4CCCC4)nc3)cnc2c1-c1ccccn1 [Compound V-176] | 500 to 5000 nM | < 500 nM
Nc1nn2cc(-c3ccncc3)cnc2c1-c1cc(N2CCCCC2)ncn1 [Compound V-179] | < 500 nM | < 500 nM
Nc1nn2cc(-c3ccc(CO)cc3)cnc2c1-c1ccccn1 [Compound V-194] | < 500 nM | < 500 nM
Nc1nn2cc(-c3cccc(C(=O)N4CCC[C@H]4CN4CCCC4)n3)cnc2c1-c1ccccn1 [Compound V-154] | 500 to 5000 nM | < 500 nM
COc1ccc(-c2cnc3c(-c4ccncc4)c(N)nn3c2)cc1 [Compound V-219] | 500 to 5000 nM | 500 to 5000 nM
CCN(CC)c1cc(-c2c(N)nn3cc(-c4ccncc4)cnc23)ncn1 [Compound V-180] | < 500 nM | < 500 nM
CCN1CCN(c2ccc(-c3cnc4c(-c5ccccn5)c(N)nn4c3)cn2)CC1 [Compound V-166] | 500 to 5000 nM | < 500 nM
Nc1nn2cc(-c3ccc4[nH]ccc4c3)cnc2c1-c1ccccn1 [Compound V-212] | < 500 nM | < 500 nM
Nc1nn2cc(-c3ccc(C(=O)N4CCC[C@H]4CN4CCCC4)cn3)cnc2c1-c1ccccn1 [Compound V-177] | < 500 nM | < 500 nM
Nc1nn2cc(-c3ccc(CN4CCOCC4)cc3)cnc2c1-c1ccccn1 [Compound V-208] | < 500 nM | 500 to 5000 nM
COc1ccccc1Nc1cc(-c2c(N)nn3cc(-c4ccncc4)cnc23)ncn1 [Compound V-242] | < 500 nM | < 500 nM
